# ChEMBL document CHEMBL1130888, “Synthesis and anti-HIV activities of symmetrical N1,N3-dibenzyl-2-hydroxy-propane derivatives” (Bioorg Med Chem Lett, 1998)
# Key:
# [1] = tested on: MT4; assay: Cytotoxicity was evaluated against uninfected MT-4 cells; format: functional; details: Homo sapiens
# [2] = Partition coefficient (logP); format: physicochemical; details: octanol/water
# [3] = tested on: MT4; assay: Inhibitory activity against syncytia formation in HIV-infected MT-4 cells was evaluated; format: functional, cell-based; details: Homo sapiens
# [4] = tested on: MT4; assay: Inhibitory activity against syncytia formation in HIV-infected MT-4 cells was evaluated; Inactive; format: functional, cell-based, Homo sapiens
# [5] = tested on: MT4; assay: Inhibitory activity against syncytia formation in HIV-infected MT-4 cells was evaluated; 1-10 uM; format: functional, cell-based; details: Homo sapiens
smiles,measurement,setting,value
O=C(NCc1ccccc1)N(Cc1ccccc1)CC(O)CN(Cc1ccccc1)C(=O)NCc1ccccc1,CC50,[1],> 100 µM
same,logP,[2]; read-out: logP,5.12
same,IC50,[3],0.1 µM
CCCCCCCCOC(=O)N(Cc1ccccc1)CC(O)CN(Cc1ccccc1)C(=O)OCCCCCCCC,CC50,[1],50 µM
same,logP,[2],10.35
same,IC50,[3],10 µM
CCOC(=O)N(Cc1ccccc1)CC(O)CN(Cc1ccccc1)C(=O)OCC,IC50,[4],Not Active
same,CC50,[1],50 µM
same,logP,[2]; read-out: logP,3.99
CC(C)(C)NC(=O)N(Cc1ccccc1)CC(O)CN(Cc1ccccc1)C(=O)NC(C)(C)C,CC50,[1],> 100 µM
same,logP,[2]; read-out: logP,4.12
same,IC50,[3],1 µM
CC(C)COC(=O)N(Cc1ccccc1)CC(O)CN(Cc1ccccc1)C(=O)OCC(C)C,CC50,[1],100 µM
same,logP,[2]; read-out: logP,5.75
same,IC50,[3],1 µM
O=C(OCc1ccccc1)N(Cc1ccccc1)CC(O)CN(Cc1ccccc1)C(=O)OCc1ccccc1,CC50,[1],10 µM
same,logP,[2]; read-out: logP,6.48
same,IC50,[3],< 0.1 µM
CC(C)(C)OC(=O)N(Cc1ccccc1)CC(O)CN(Cc1ccccc1)C(=O)OC(C)(C)C,CC50,[1],> 100 µM
same,logP,[2]; read-out: logP,5.39
same,IC50,[5],1 µM
O=C(N1CCOCC1)N(Cc1ccccc1)CC(O)CN(Cc1ccccc1)C(=O)N1CCOCC1,IC50,[4],Not Active
same,CC50,[1],100 µM
same,logP,[2]; read-out: logP,0.04
O=C(OCC1CCCCO1)N(Cc1ccccc1)CC(O)CN(Cc1ccccc1)C(=O)OCC1CCCCO1 (stereo unspecified),IC50,[4],Not Active
same,CC50,[1],50 µM
same,logP,[2]; read-out: logP,4.07
CN(C(=O)N(Cc1ccccc1)CC(O)CN(Cc1ccccc1)C(=O)N(C)c1ccccc1)c1ccccc1,CC50,[1],> 100 µM
same,logP,[2]; read-out: logP,7.06
same,IC50,[3],1 µM
O=C(OC1CCOC1)N(Cc1ccccc1)CC(O)CN(Cc1ccccc1)C(=O)OC1CCOC1 (stereo unspecified),IC50,[4],Not Active
same,CC50,[1],50 µM
same,logP,[2]; read-out: logP,2.48
O=C(OCC1CCCO1)N(Cc1ccccc1)CC(O)CN(Cc1ccccc1)C(=O)OCC1CCCO1 (stereo unspecified),IC50,[4],Not Active
same,CC50,[1],50 µM
same,logP,[2]; read-out: logP,2.94
